{
  "source": "paper PMC4669708",
  "about": "(Cell Death & Disease, 2015)",
  "assay_in_all_cases": "c-ponatinib pulldown LC-MS/MS",
  "format_in_all_cases": "binding",
  "key": {"CCT2": {"biological_target": "T1, CCT2 (Homo sapiens, UniProt P78371)", "T1 sequence (P78371 1-535)": "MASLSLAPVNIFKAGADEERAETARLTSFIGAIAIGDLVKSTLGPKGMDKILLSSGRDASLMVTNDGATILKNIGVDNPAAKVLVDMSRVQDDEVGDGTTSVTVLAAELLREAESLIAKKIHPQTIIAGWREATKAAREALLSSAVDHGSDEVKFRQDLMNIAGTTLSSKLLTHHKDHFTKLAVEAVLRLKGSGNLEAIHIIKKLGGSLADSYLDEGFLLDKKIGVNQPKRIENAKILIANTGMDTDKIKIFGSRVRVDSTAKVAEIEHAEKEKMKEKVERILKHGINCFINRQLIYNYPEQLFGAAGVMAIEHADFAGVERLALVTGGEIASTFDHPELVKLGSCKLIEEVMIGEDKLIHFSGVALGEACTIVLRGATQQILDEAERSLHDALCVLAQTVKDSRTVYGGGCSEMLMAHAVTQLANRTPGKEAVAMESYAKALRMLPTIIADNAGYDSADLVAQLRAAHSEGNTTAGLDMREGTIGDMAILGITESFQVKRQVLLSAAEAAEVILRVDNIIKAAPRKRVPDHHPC", "outline": "(§1)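 c-Ponatinib (25 nmol) immobilized on NHS-Sepharose was incubated with 10 mg whole cell lysate per replicate, in duplicate. Eluates were reduced, alkylated, trypsin-digested and analysed by gel-free 1D LC-MS/MS. Specificity was scored from Mascot, Phenyx and spectral counts, with competition by free compound.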"}, "CDK8": {"biological_target": "CDK8 (Homo sapiens, UniProt P49336)", "sequence (P49336 whole entry)": "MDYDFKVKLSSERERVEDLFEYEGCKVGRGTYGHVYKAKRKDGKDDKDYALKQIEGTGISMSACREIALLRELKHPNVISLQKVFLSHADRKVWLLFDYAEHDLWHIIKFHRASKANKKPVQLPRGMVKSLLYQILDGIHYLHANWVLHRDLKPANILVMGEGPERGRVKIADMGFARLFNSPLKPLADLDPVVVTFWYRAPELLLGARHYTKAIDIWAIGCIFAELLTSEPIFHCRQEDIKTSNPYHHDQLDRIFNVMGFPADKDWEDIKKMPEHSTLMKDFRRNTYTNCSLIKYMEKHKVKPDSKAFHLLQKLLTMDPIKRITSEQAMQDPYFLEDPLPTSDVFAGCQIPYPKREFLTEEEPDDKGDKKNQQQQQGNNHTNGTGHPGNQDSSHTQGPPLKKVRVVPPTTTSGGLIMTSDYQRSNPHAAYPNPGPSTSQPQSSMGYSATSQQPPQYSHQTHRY", "sequence (P24863 whole entry partner)": "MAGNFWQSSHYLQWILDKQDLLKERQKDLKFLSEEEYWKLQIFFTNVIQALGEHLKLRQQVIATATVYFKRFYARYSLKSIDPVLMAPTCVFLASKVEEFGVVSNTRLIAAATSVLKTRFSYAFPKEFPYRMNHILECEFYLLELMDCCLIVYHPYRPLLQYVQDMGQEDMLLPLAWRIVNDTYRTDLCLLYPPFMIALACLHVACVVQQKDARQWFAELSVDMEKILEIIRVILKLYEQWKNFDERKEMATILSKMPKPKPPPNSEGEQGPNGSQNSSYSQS", "outline": "as §1"}, "ABL2": {"biological_target": "ABL2 (Homo sapiens, UniProt P42684)", "sequence (P42684 whole entry)": "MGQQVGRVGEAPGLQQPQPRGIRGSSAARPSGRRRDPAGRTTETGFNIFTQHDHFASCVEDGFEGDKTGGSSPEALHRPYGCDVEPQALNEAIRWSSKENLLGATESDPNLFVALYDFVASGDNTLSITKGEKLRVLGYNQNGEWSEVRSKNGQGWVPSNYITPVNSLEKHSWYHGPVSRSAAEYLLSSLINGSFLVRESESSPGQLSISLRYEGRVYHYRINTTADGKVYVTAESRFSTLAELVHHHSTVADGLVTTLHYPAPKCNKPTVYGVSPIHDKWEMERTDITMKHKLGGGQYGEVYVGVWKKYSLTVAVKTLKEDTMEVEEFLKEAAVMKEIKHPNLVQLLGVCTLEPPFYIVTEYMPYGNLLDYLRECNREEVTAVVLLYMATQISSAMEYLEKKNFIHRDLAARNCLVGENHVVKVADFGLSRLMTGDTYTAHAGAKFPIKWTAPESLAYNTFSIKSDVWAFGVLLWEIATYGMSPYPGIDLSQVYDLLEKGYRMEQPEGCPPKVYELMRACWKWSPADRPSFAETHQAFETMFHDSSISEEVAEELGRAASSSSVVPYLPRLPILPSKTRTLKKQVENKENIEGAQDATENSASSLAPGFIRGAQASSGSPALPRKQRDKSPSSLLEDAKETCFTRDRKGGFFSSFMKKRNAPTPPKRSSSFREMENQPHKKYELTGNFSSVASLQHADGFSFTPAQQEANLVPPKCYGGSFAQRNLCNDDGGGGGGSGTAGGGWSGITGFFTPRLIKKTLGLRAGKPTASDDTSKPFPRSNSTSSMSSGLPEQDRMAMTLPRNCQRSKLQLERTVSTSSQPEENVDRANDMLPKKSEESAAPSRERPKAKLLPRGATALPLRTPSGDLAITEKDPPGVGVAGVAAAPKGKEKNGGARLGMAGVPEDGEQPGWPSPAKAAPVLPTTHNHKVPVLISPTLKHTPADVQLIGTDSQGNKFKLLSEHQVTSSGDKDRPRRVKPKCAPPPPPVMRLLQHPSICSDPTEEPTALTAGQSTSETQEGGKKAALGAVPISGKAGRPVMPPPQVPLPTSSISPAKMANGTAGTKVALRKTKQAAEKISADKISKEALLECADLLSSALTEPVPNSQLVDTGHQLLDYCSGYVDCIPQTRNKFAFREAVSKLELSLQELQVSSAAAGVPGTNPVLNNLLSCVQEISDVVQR", "outline": "as §1"}, "RIPK1": {"biological_target": "T2, RIPK1 (Homo sapiens, UniProt Q13546)", "T2 sequence (Q13546 1-671)": "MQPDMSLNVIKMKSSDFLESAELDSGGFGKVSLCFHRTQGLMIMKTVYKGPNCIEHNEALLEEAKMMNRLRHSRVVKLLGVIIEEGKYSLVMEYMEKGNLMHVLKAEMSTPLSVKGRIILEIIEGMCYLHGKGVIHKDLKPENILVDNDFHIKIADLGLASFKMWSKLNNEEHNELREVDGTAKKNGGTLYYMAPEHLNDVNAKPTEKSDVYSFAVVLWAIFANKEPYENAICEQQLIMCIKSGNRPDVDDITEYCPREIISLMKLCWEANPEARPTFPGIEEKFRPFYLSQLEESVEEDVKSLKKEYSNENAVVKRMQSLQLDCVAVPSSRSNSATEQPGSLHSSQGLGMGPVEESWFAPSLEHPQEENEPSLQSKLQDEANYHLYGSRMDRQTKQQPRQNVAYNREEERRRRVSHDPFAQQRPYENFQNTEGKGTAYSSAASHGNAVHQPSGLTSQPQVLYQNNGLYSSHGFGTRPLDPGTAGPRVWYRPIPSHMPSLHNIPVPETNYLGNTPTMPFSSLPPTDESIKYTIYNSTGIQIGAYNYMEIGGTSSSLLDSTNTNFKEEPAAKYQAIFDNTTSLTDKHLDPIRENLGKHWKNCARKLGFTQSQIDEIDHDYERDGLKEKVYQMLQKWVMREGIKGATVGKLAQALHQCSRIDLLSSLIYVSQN", "outline": "as §1"}, "RIPK3": {"biological_target": "RIPK3 (Homo sapiens, UniProt Q9Y572)", "sequence (Q9Y572 whole entry)": "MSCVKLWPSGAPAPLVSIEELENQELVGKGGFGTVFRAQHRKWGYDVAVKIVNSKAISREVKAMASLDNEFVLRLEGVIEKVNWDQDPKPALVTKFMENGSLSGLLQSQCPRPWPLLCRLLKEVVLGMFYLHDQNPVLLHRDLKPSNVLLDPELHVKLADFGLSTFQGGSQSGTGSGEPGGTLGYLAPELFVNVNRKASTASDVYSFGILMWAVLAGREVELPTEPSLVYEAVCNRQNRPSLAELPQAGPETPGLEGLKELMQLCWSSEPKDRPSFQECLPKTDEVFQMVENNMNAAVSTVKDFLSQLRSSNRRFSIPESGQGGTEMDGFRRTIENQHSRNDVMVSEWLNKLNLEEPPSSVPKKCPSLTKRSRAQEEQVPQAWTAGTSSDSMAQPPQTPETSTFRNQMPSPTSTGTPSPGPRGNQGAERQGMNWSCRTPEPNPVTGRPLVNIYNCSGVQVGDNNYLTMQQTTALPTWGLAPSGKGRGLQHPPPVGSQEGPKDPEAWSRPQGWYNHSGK", "outline": "as §1"}},
  "data": [
    {"smiles": "Cc1ccc(C(=O)Nc2ccc(CN3CCN(CCCN)CC3)c(C(F)(F)F)c2)cc1C#Cc1cnc2cccnn12", "note": "[c-ponatinib]", "values": [
      {"measurement": "Av. SC comp.", "setting": "CCT2; + free ponatinib", "value": 0},
      {"measurement": "Total SC comp.", "setting": "CCT2; + free ponatinib", "value": 0},
      {"measurement": "Av. SC", "setting": "CCT2; no competitor", "value": 3.5},
      {"measurement": "Total SC", "setting": "CCT2; no competitor", "value": 14},
      {"measurement": "Av. SC comp.", "setting": "CDK8; + free ponatinib", "value": 0},
      {"measurement": "Total SC comp.", "setting": "CDK8; + free ponatinib", "value": 0},
      {"measurement": "Av. SC", "setting": "CDK8; no competitor", "value": 3.75},
      {"measurement": "Total SC", "setting": "CDK8; no competitor", "value": 15},
      {"measurement": "Av. SC comp.", "setting": "ABL2; + free ponatinib", "value": 0},
      {"measurement": "Total SC comp.", "setting": "ABL2; + free ponatinib", "value": 0},
      {"measurement": "Av. SC", "setting": "ABL2; no competitor", "value": 17.25},
      {"measurement": "Total SC", "setting": "ABL2; no competitor", "value": 69},
      {"measurement": "Av. SC comp.", "setting": "RIPK1; + free ponatinib", "value": 0},
      {"measurement": "Total SC comp.", "setting": "RIPK1; + free ponatinib", "value": 0},
      {"measurement": "Av. SC", "setting": "RIPK1; no competitor", "value": 1.5},
      {"measurement": "Total SC", "setting": "RIPK1; no competitor", "value": 6},
      {"measurement": "Av. SC comp.", "setting": "RIPK3; + free ponatinib", "value": 0},
      {"measurement": "Total SC comp.", "setting": "RIPK3; + free ponatinib", "value": 0},
      {"measurement": "Av. SC", "setting": "RIPK3; no competitor", "value": 17},
      {"measurement": "Total SC", "setting": "RIPK3; no competitor", "value": 68}
    ]}
  ]
}
